Source: PubChem BioAssay (NCI)
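Cells were grown in 96-well plates and exposed to each compound for 48 hours at five concentrations; endpoints were interpolated linearly between bracketing concentrations, or set to the highest concentration if not reached. TGI is the concentration that stops growth completely.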

Experiments:
Assay in all cases: growth of human tumour cells (NCI), 48 h
NCI-H226 lung = test system: NCI-H226 lung
ACHN renal = test system: ACHN renal
HOP-92 NSCLC = test system: HOP-92 NSCLC
HCT-116 colon = test system: HCT-116 colon
SF-539 CNS = test system: SF-539 CNS
HCT-15 colon = test system: HCT-15 colon
A498 renal = test system: A498 renal
NCI-H460 lung = test system: NCI-H460 lung
SF-295 CNS = test system: SF-295 CNS
MCF7 breast = test system: MCF7 breast
NCI-H23 lung = test system: NCI-H23 lung
SNB-19 CNS = test system: SNB-19 CNS
MDA-MB-231 breast = test system: MDA-MB-231 breast
SK-MEL-5 melanoma = test system: SK-MEL-5 melanoma
M14 melanoma = test system: M14 melanoma
RXF 393 renal = test system: RXF 393 renal
OVCAR-8 ovarian = test system: OVCAR-8 ovarian
UACC-257 melanoma = test system: UACC-257 melanoma
MOLT-4 leukemia = test system: MOLT-4 leukemia
SK-OV-3 ovarian = test system: SK-OV-3 ovarian
PC-3 prostate = test system: PC-3 prostate
SW-620 colon = test system: SW-620 colon
IGROV1 ovarian = test system: IGROV1 ovarian
SR leukemia = test system: SR leukemia
HL-60(TB) leukemia = test system: HL-60(TB) leukemia
K-562 leukemia = test system: K-562 leukemia
T-47D breast = test system: T-47D breast
HCC-2998 colon = test system: HCC-2998 colon
TK-10 renal = test system: TK-10 renal
SK-MEL-28 melanoma = test system: SK-MEL-28 melanoma
DU-145 prostate = test system: DU-145 prostate
MDA-MB-435 = test system: MDA-MB-435
SN12C renal = test system: SN12C renal
UACC-62 melanoma = test system: UACC-62 melanoma
HS 578T breast = test system: HS 578T breast
RPMI-8226 leukemia = test system: RPMI-8226 leukemia
SF-268 CNS = test system: SF-268 CNS
A549 NSCLC = test system: A549 NSCLC
OVCAR-3 ovarian = test system: OVCAR-3 ovarian
KM12 colon = test system: KM12 colon
HOP-62 NSCLC = test system: HOP-62 NSCLC
786-0 renal = test system: 786-0 renal
OVCAR-4 ovarian = test system: OVCAR-4 ovarian
UO-31 renal = test system: UO-31 renal
EKVX NSCLC = test system: EKVX NSCLC
NCI/ADR-RES ovarian = test system: NCI/ADR-RES ovarian
NCI-H522 lung = test system: NCI-H522 lung
U251 CNS = test system: U251 CNS
COLO 205 colon = test system: COLO 205 colon
SK-MEL-2 melanoma = test system: SK-MEL-2 melanoma
MALME-3M melanoma = test system: MALME-3M melanoma
LOX IMVI melanoma = test system: LOX IMVI melanoma
CCRF-CEM leukemia = test system: CCRF-CEM leukemia
CAKI-1 renal = test system: CAKI-1 renal
HT29 colon = test system: HT29 colon
MDA-N = test system: MDA-N
SNB-75 CNS = test system: SNB-75 CNS

Measured: TGI

CCOC(CN(C)C(=O)Nc1cccc2ccccc12)OCC
> 10 µM: all assays above
